Measurements reported in a melting point compilation (Tetko et al.; mined from patent text by program, amines drawn as free bases though some values may be those of a salt).

| SMILES | melting point |
| --- | --- |
| CCOC(=O)COc1ccc(N)c(C)c1 | 198 to 200 °C |
| CC1CN(c2nnc(N3CCOC(C)C3)c3cc(-c4ccccc4)ncc23)CCO1 (stereo not drawn) | 75 to 81 °C |
| CC(C)(c1ccc(C(O)(C(F)(F)F)C(F)(F)F)cc1)S(=O)(=O)c1ccccc1 | 185 °C |
| CCOC(=O)CCCOc1ccc(-c2ccc(OCC)cc2)cc1C=O | 69 to 70 °C |
| CC(C)c1ccc(-c2ccc3c(c2)C=C(C(=O)Nc2ccc(CN(C)C4CCOCC4)cc2)CCS3(=O)=O)cc1 | 240 to 247 °C |
| CC(C)(C)NS(=O)(=O)Cl | 28 to 30 °C |
| CCC(=O)NNC(=O)c1ccncc1 | 131 °C |
| CCOC(=O)c1ccc(OCCCc2ccc(OC)c(OC)c2)cc1 | 70 to 71 °C |
| Cc1c(SCc2ccco2)ccnc1CSc1nc2ccccc2[nH]1 | 188 to 189 °C |
| CN(C)CCCNC(=O)N1CCN(c2ccccc2)CC1 | 91 to 95 °C |
| C=CCOc1cccc(-n2cnc(-c3nc(CC)no3)c2)c1 | 73 to 74 °C |
| O=C(O)Cc1ccc(COc2cccc(-c3c(-c4ccccc4)cnc4c(C(F)(F)F)cccc34)c2)cc1 | 122 °C |
| CSCC(=O)Nc1cc(SCC(C)C)ccc1[N+](=O)[O-] | 73 to 74 °C |
| CC(C)Cn1c(N)nc2c(N)nc3ccccc3c21 | > 250 °C |
| CC1c2cc(OCC(=O)O)c(Cl)c(Cl)c2C(=O)C1(C)Cl (stereo not drawn) | 179 to 187 °C |
| CCC(CC)c1nc(-c2ccncc2)c(-c2ccc(Cl)cc2)n1C | 100 to 102 °C |
| O=C1c2ccccc2C(=O)N1c1cc(C(Cl)(Cl)Cl)ccn1 | 143 °C |
| CCCn1c(CCOC)nc2c(N)nc3cc(OC4CCN(C(=O)NC(C)C)CC4)ccc3c21 | 176 to 179 °C |
| CC(C)N(C(=O)n1nc(Oc2ccc(C(F)(F)F)cc2[N+](=O)[O-])cc1C(F)(F)F)C(C)C | 118 to 120 °C |
| COc1cc(OC)c(/C=C/S(=O)(=O)Cc2ccc(OC)c(N)c2)c(OC)c1 | 148 to 150 °C |
| CCCOc1ccccc1C1=NC(=O)C2=NC(S)=NC2=N1 | 305 to 307 °C |
| CCCC(=O)C1=C(O)CC(c2cc(C3CCCO3)no2)CC1=O (stereo not drawn) | 102 to 104 °C |
| CC(C)OC1(C(=O)O)C=C(Cl)C=C(Cl)C1 (stereo not drawn) | 140 to 141 °C |

| SMILES | melting point |
| --- | --- |
| COc1ccccc1C(=O)c1cccc(NC(=O)c2ccn3c2CSC3c2cccnc2)c1 (stereo not drawn) | 184 °C |
| Cc1ccc(-c2cnc3c(N)ncnc3n2)cc1 | 315 °C |
| CCCc1c(OCCCCCCc2ccc(C(=O)c3cccc(C(=O)O)c3)cc2CCC(=O)O)ccc2c1OCCC2=O | 137 to 139 °C |
| O=C(OCc1ccccc1)N1C[C@@H]2CN(c3ccc(N4C[C@H](CO)OC4=O)cc3F)C[C@@H]2C1 | 168 to 171 °C |
| Cc1ncc(-c2ccc3[nH]c4c(cc(-c5ccc(Cl)cc5Cl)c(=O)n4C)c3c2)o1 | 338 to 340 °C |
| CCOCCC(=O)OCC(=O)C1(O)CCC2C3CC(C)C4=CC(=O)C=CC4(C)C3C(O)CC21C (stereo not drawn) | 186 °C |
| O=C(Nc1ccc(F)cc1)c1ccccc1SSc1ccccc1C(=O)Nc1ccc(F)cc1 | 242 to 244 °C |
| COc1ccc(CCOc2cccc(-c3cccc(C(=O)O)c3)c2)cc1OC | 100 to 102 °C |
| COc1cc(Cc2cnc(N)nc2N)cc(-c2cccc(NS(=O)(=O)c3ccc(N)cc3)c2)c1OC | 223 to 226 °C |
| CC(=O)NC[C@H]1CN(c2ccc(N3CCC(COc4ccon4)CC3)c(F)c2)C(=O)O1 | 163 to 165 °C |
| Cc1cc2c(cc1C)SC(CCCBr)C(=O)N2 (stereo not drawn) | 151 to 153 °C |
| CCCN(CCC)C(=O)Cn1c(-c2cccc(Br)c2)nc2cccnc21 | 125 to 127 °C |
| CCOc1ccc(N2CCN(Cc3c[nH]c4ncccc34)CC2)cc1 | 179 to 180 °C |
| CNC(=O)C1C(C)(C)C1(C)C | 98 °C |
| COc1ccc2c(c1)CCC1CCNC(=O)C(CC(C)=NO)=C21 (stereo not drawn) | 216 to 218 °C |
| CCOC(=O)c1cn(C)nc1OCc1ccc(OCc2nc(-c3ccccc3)oc2C)c(OC)c1 | 134 to 135 °C |
| O=C(c1c(F)cccc1F)N1COCN(c2ccc(S(=O)C(F)F)cc2F)C1=O (stereo not drawn) | 138 to 140 °C |
| CCCCOc1ccc(C(=O)Nc2ccc3cc(C(C)N4CCCC4)cnc3c2C)cc1 (stereo not drawn) | 136 to 139 °C |
| COC(=O)c1nc2cc(I)ccc2c(O)c1C(=O)OC | 243 to 244 °C |
| CCOC(=O)c1c(C)nc2c(nc(C)n2C)c1OCC | 85 to 87 °C |
| CCCc1nc(OC)c(N(C)C(=O)N2CCN(c3cc(OC)cc(OC)c3)CC2)cc1C | 106 to 107 °C |
| Nc1ccc(C(=O)OCCOC(=O)CC[C@@H](C(=O)O)n2c3ccccc3c3ccccc32)cc1 | 65 °C |
| Cc1scc2c1N(C(=O)NCCN1CCC(CCCN3CCCCC3)CC1)c1ccccc1NC2=O | 170 to 171 °C |

| SMILES | melting point |
| --- | --- |
| Nc1nc2cc(CO)ccc2n1Cc1cccc2cccnc12 | > 260 °C |
| CCOC(=O)c1c(C(F)(F)F)nc(-c2cccs2)c(-c2ccccc2)c1O | 136 °C |
| Cc1cc(C#N)cc(C(N)=O)c1NC(=O)c1cc(Br)nn1-c1ncccc1Cl | > 255 °C |
| O=C1N(Cc2ccc3c(c2)OCCO3)c2ccccc2C12COc1cc3c(cc12)OCCO3 (stereo not drawn) | 120 to 123 °C |
| O=C1c2ccccc2COc2ccc(CCOC(c3ccccc3)(c3ccccc3)c3ccccc3)cc21 | 132 to 134 °C |
| CCN1CCN(C(=O)c2ccc(-c3[nH]nc4c3C(=O)c3c(NC(=O)NN5CCOCC5)cccc3-4)s2)CC1 | 186 to 188 °C |
| N#CC1=C(C2CCCCCC2)Nc2n[nH]cc2C1c1cccc(C#N)c1Br (stereo not drawn) | 252 °C |
| COc1cc2c(cc1S(=O)(=O)c1ccccc1)[C@@H](N1CCCCC1=O)[C@H](O)C(C)(C)O2 (relative stereo) | 157 to 158 °C |
| COc1ccc(C2(O)CCN(c3ccc(OC)nc3-c3ccc(OC(F)(F)F)cc3)CC2)cc1 | 100 to 112 °C |
| Cc1ccc(N(C)S(=O)(=O)c2cccs2)c2[nH]c(-c3ncc(CCl)s3)cc12 | 194 to 195 °C |
| CC(=O)c1cc(N=C=O)cc(C(C)=O)c1 | 71 °C |
| O=C(Nc1ccccc1C(F)(F)F)OCc1nccn1-c1cc2cc(C(=O)O)c(=O)[nH]c2cc1Cl | > 300 °C |
| Cn1ccc2cc(NC(=O)c3cc4cccnc4n3Cc3cccc(F)c3)ccc21 | 191 to 192 °C |
| CN1CCNC1=C(Br)[N+](=O)[O-] | 97 °C |
| CCC(=O)Nc1n[nH]c(C(C)(C)C)c1Cl | 136 to 137 °C |
| COCOc1c(C(C)(C)C)cc(C=[N+]([O-])C(C)(C)C)cc1C(C)(C)C | 202 to 206 °C |
| CC(C)(C)C(O)(c1ccccc1)c1cc(Cl)ccc1O (stereo not drawn) | 146 °C |
| COc1ccc(C(=O)COc2ccc(C(=O)OCc3ccccc3)c(O)c2)cc1C(C)(C)C | 98 to 99 °C |
| COc1ccc2c(Cc3c(Cl)cncc3Cl)nncc2c1C=CCCCc1ccccc1 | 121 to 123 °C |
| CC(=O)N(C)c1cc(-c2ccnc3c(C(=O)c4cccs4)cnn23)ccc1F | 165 to 167 °C |
| O=C(O)n1ccc2c(OCc3ccccc3)c(Cc3ccccc3)ccc21 | 181 to 183 °C |
| COC(=O)CCCCCOC1OC(CO)C(O)C(O)C1NC(C)=O (stereo not drawn) | 154 to 155 °C |
